Measurements: the NIST ThermoML archive (doi:10.1021/je050092d)
Numbers after ± are expanded uncertainties.

Test: molar heat capacity at constant pressure
Details: 101.33 kPa, Vacuum adiabatic calorimetry

CCCCCCCCCCCCCCCCCC(=O)OCC(COC(=O)CCCCCCCCCCCCCCCCC)OC(=O)CCCCCCCCCCCCCCCCC [glycerol trioctadecanoate]
Details	molar heat capacity at constant pressure [J/K/mol]
214.62 K, Metastable crystal	1110.8 ± 18
215.88 K, Crystal	1037.7 ± 18
217.06 K, Metastable crystal	1127.7 ± 18
218.8 K, Crystal	1044.8 ± 18
219.48 K, Metastable crystal	1147.3 ± 18
221.72 K, Crystal	1048.4 ± 18
221.9 K, Metastable crystal	1157.1 ± 18
224.3 K, Metastable crystal	1170.5 ± 18
224.64 K, Crystal	1057.3 ± 18
226.69 K, Metastable crystal	1185.7 ± 18
227.55 K, Crystal	1067.1 ± 18
229.06 K, Metastable crystal	1200.8 ± 18
230.47 K, Crystal	1080.5 ± 18
231.43 K, Metastable crystal	1217.8 ± 18
233.39 K, Crystal	1094.7 ± 18
233.79 K, Metastable crystal	1238.3 ± 18
236.13 K, Metastable crystal	1256.1 ± 18
236.3 K, Crystal	1107.2 ± 18
238.46 K, Metastable crystal	1271.3 ± 18
239.22 K, Crystal	1121.5 ± 18
240.79 K, Metastable crystal	1288.2 ± 18
242.14 K, Crystal	1134 ± 18
243.1 K, Metastable crystal	1307.8 ± 18
245.06 K, Crystal	1149.1 ± 18
245.41 K, Metastable crystal	1327.4 ± 18
247.71 K, Metastable crystal	1339.9 ± 18
247.98 K, Crystal	1165.2 ± 18
250 K, Metastable crystal	1358.6 ± 18
250.9 K, Crystal	1177.6 ± 18
252.28 K, Metastable crystal	1376.4 ± 18
253.82 K, Crystal	1192.8 ± 18
254.56 K, Metastable crystal	1397.8 ± 18
256.74 K, Crystal	1208 ± 18
256.83 K, Metastable crystal	1413 ± 18
259.09 K, Metastable crystal	1426.4 ± 18
259.67 K, Crystal	1222.2 ± 18
261.34 K, Metastable crystal	1444.2 ± 18
262.6 K, Crystal	1238.3 ± 18
263.59 K, Metastable crystal	1461.1 ± 18
265.53 K, Crystal	1254.3 ± 18
265.83 K, Metastable crystal	1479 ± 18
268.07 K, Metastable crystal	1495 ± 18
268.46 K, Crystal	1271.3 ± 18
270.3 K, Metastable crystal	1515.5 ± 18
271.39 K, Crystal	1285.5 ± 18
272.53 K, Metastable crystal	1532.5 ± 18
274.33 K, Crystal	1301.6 ± 18
274.75 K, Metastable crystal	1553 ± 18
276.96 K, Metastable crystal	1577.9 ± 18
277.27 K, Crystal	1327.4 ± 18
279.18 K, Metastable crystal	1590.4 ± 18
280.21 K, Crystal	1339 ± 18
281.39 K, Metastable crystal	1610 ± 18
283.16 K, Crystal	1355 ± 18
283.59 K, Metastable crystal	1629.6 ± 18
285.8 K, Metastable crystal	1647.5 ± 18
286.11 K, Crystal	1371.1 ± 18
288 K, Metastable crystal	1670.6 ± 18
289.07 K, Crystal	1387.1 ± 18
290.2 K, Metastable crystal	1689.4 ± 18
292.03 K, Crystal	1412.1 ± 18
292.39 K, Metastable crystal	1716.1 ± 18
294.59 K, Metastable crystal	1733 ± 18
294.99 K, Crystal	1428.2 ± 18
296.78 K, Metastable crystal	1763.3 ± 18
297.32 K, Crystal	1434.4 ± 18
297.96 K, Crystal	1448.7 ± 18
298.4 K, Crystal	1436.2 ± 18
298.97 K, Metastable crystal	1787.4 ± 18
299.84 K, Crystal	1454.9 ± 18
300.94 K, Crystal	1466.5 ± 18
301.16 K, Metastable crystal	1815.9 ± 18
301.82 K, Crystal	1473.6 ± 18
303.79 K, Crystal	1492.3 ± 18
304.05 K, Crystal	1488.8 ± 18
305.75 K, Crystal	1508.4 ± 18
306.72 K, Crystal	1514.6 ± 18
307.7 K, Crystal	1523.5 ± 18
308.94 K, Crystal	1529.8 ± 18
309.65 K, Crystal	1536 ± 18
311.17 K, Crystal	1544 ± 18
311.6 K, Crystal	1552.1 ± 18
313.39 K, Crystal	1561 ± 18
313.55 K, Crystal	1569.9 ± 18
315.49 K, Crystal	1579.7 ± 18
315.61 K, Crystal	1576.1 ± 18
317.43 K, Crystal	1598.4 ± 18
317.83 K, Crystal	1598.4 ± 18
319.37 K, Crystal	1627.8 ± 18
320.05 K, Crystal	1624.3 ± 18
321.32 K, Crystal	1642.1 ± 18
322.28 K, Crystal	1645.7 ± 18
323.27 K, Crystal	1659.9 ± 18
324.5 K, Crystal	1666.2 ± 18
325.23 K, Crystal	1682.2 ± 18
326.72 K, Crystal	1692.9 ± 18
327.2 K, Crystal	1700.1 ± 18
328.95 K, Crystal	1713.4 ± 18
329.17 K, Crystal	1721.4 ± 18
351.37 K, Liquid	1971.1 ± 20
353.63 K, Liquid	1975.5 ± 20
355.89 K, Liquid	1981.8 ± 20
358.16 K, Liquid	1986.2 ± 20
360.45 K, Liquid	1992.5 ± 20
362.74 K, Liquid	1997.8 ± 20
365.05 K, Liquid	2004.9 ± 21
367.37 K, Liquid	2007.6 ± 21
369.71 K, Liquid	2015.6 ± 21
